The source of these data is PubChem BioAssay (NCI).

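1) Cells in 96-well plates. 2) Compound, 48 h, 5 concentrations. 3) Linear interpolation between surrounding doses. 4) Unreached endpoint = highest concentration. At the TGI there is no net growth.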

Assay in all cases: DTP human tumour cell line panel, 48 h
The subject of experiment [1] is SW-620 colon.
Experiment [2] concerns EKVX NSCLC.
Experiment [3] concerns A498 renal.
In experiment [4] the test system is SK-MEL-2 melanoma.
Experiment [5] relates to OVCAR-3 ovarian.
In experiment [6] the test system is HOP-62 NSCLC.
The subject of experiment [7] is SN12C renal.
For experiment [8], the system named is MALME-3M melanoma.
Experiment [9] has as its system U251 CNS.

Regarding `COC(=O)C(=O)C(C(=O)C=C(C)C)C(=O)C(=O)Nc1nc2ccc([N+](=O)[O-])cc2s1` (centres undefined), the TGI – broadly, the concentration at which net growth stops – in experiment [1] is more than 100 µM; in [2], more than 100 µM; in [3], 91 µM; in experiment [4], more than 100 µM; in experiment [5], more than 100 µM; in [6], more than 100 µM. Further, the TGI in experiment [7], in [8] and in experiment [9] was more than 100 µM throughout.
For `O=C(O)CCSC(=S)Nc1cccc(F)c1`, the TGI is more than 100 µM in experiment [1]; 81.8 µM in experiment [2]; 77.7 µM in experiment [3]; more than 100 µM in [5]; more than 100 µM in experiment [6]; more than 100 µM in experiment [7]. Besides, the TGI in experiment [8] and in experiment [9] was more than 100 µM in each case.
For `N#Cc1cc(NC(=O)c2ccccc2)c(=O)n2c1[nH]c1ccccc12`, the TGI in experiment [1] is more than 100 µM; in [2] it was more than 100 µM; in experiment [3], 85.8 µM; in [4], 89.8 µM; in experiment [5], 80.7 µM; in experiment [6], 88.1 µM. The TGI is more than 100 µM in [7], 83 µM in experiment [8] and more than 100 µM in experiment [9].
With `Cc1ccc(/C=C(\C#N)c2ccccc2)cc1`, the TGI in [1], in experiment [3], in [4], in experiment [5], in [6] and in [7] was more than 100 µM in each case. Further, the TGI in [9] is more than 100 µM.
In the case of `C=C1C(=O)OC2C1C(OC(=O)/C(C)=C\C)CC1(CO1)C1C(O)C=C(C)C21O` (centres undefined), the TGI in experiment [1] stood at 3.34 µM; in experiment [2] it was 26.5 µM; in experiment [3], 17.7 µM; in experiment [4], 12.5 µM; in experiment [5] it was 11.3 µM; in experiment [6], 41.1 µM. For the same compound, the figures for the TGI in experiment [7], in experiment [8] and in experiment [9] were 14.5 µM, 7.65 µM and 24.5 µM, respectively.
Turning to `COc1ccc(C[C@H](N)C(=O)N2C[C@@H](CO)C[C@@H](n3cnc4c(N(C)C)ncnc43)C2)cc1`, the TGI in [1], in [2], in experiment [4], in experiment [5], in experiment [6] and in experiment [8] was more than 100 µM each time. Further, the TGI in [9] is more than 100 µM.
As to `O=C(c1ccccc1)c1c(CC(O)c2ccccc2)n(C(=O)c2ccccc2)c2ccccc12` (centres undefined), the TGI in experiment [1], in experiment [4], in experiment [5], in experiment [6], in [8] and in [9] was more than 100 µM each time.
With `O=C(O)CCSC(=O)Nc1ccccc1Cl`, the TGI in experiment [1], in experiment [2], in experiment [3], in experiment [5], in experiment [6] and in experiment [7] was more than 100 µM each time. The TGI in experiment [8] and in experiment [9] was more than 100 µM in each case.
For `CN(C)CCC1(C2=CCCC2)CC/C(=C\c2ccccc2Cl)C1=O` (centres undefined), the TGI in experiment [1] turned out to be 25.2 µM; in [2], 29.3 µM; in experiment [3] it was 28.4 µM; in experiment [4], 27.6 µM; in experiment [5], 28.9 µM; in experiment [7], 26.7 µM. In addition, the TGI worked out at 28 µM in [8] and 25.5 µM in [9].
For the compound `CCOC(=O)NC(=O)c1cn(CCN2CCNCC2)c(=O)[nH]c1=O`, the TGI in experiment [1], in experiment [2], in [4], in [5], in [6] and in experiment [7] was more than 100 µM throughout. Moreover, the TGI in experiment [9] is more than 100 µM.
Consider `C#CCN(N=O)C(=O)NCCCC(NC(C)=O)C(=O)NCc1ccccc1` (centres undefined), for which the TGI in [1], in experiment [2], in experiment [3], in experiment [5], in experiment [6] and in [7] was more than 100 µM in each case. Besides, the TGI in experiment [8] and in experiment [9] was more than 100 µM throughout.
As for `COC(=O)C(C(=O)C(=O)Nc1ccc(OC)cc1[N+](=O)[O-])c1nc2cc(C)c(C)cc2[nH]c1=O` (centres undefined), the TGI in experiment [1], in [2], in [3], in experiment [5], in experiment [6] and in [7] was more than 100 µM each time. For the same compound, the TGI in experiment [8] and in experiment [9] was more than 100 µM in each case.
Turning to `O=C(O)CC1CC=C[C@H]2c3cc4c(cc3C(=O)NC12)OCO4` (some centres undefined), the TGI in [1], in [2], in [5], in experiment [6], in experiment [7] and in experiment [8] was more than 75 µM each time. In experiment [9], the TGI is more than 75 µM.
Regarding `COCOCC[C@@H]1CC=CC(NC(=O)OCc2ccccc2)C1/C=C/C(=O)CCC1OCCO1` (some centres undefined), the TGI was 59.5 µM in [1]; more than 100 µM in [2]; more than 100 µM in [3]; more than 76.5 µM in experiment [4]; more than 76.1 µM in experiment [5]; more than 100 µM in [6]. The results for the TGI in [7], in experiment [8] and in [9] were more than 68.5 µM, more than 100 µM and 70.6 µM, respectively.
For `Nc1ccc2c(c1)Oc1c(F)c(F)cc3c(=O)c(C(=O)O)cn-2c13`, the TGI was more than 100 µM in experiment [1]; more than 100 µM in [2]; 49.7 µM in experiment [3]; more than 100 µM in experiment [4]; 96.6 µM in experiment [5]; more than 100 µM in experiment [6]. For the same compound, the TGI in [7], in [8] and in experiment [9] was more than 100 µM in each case.
